These results are taken from the Deep4Chem optical property database.

The nature of this data set: solvent given as SMILES.

Turning to `Cc1ccccc1/C(C#N)=C/c1ccc(N(C)C)cc1`, the emission maximum (in C1CCOC1) is reported as 484 nm; the emission maximum (in C1COCCO1) was 476 nm; the emission maximum (in CC#N) is given as 427 nm; the emission maximum (in CCCCCC) is 431 nm; the emission maximum (in CCCCCCC) was determined as 433 nm; the emission maximum (in CCCCCO) amounted to 495 nm. Further, the emission maximum is recorded as 502 nm (in CCCCO); 505 nm (in CCCO); 509 nm (in CCO); 490 nm (in CCOC(C)=O); 456 nm (in CN(C)C=O); 450 nm (in CO). Besides, the emission maximum reads like this: (in CS(C)=O) 453 nm; (in Cc1ccccc1) 464 nm; (in ClC(Cl)Cl) 481 nm.
Under “in CN(C)C=O”, `O=C1c2ccc3c4ccc5c6c(ccc(c7ccc(c2c37)C(=O)N1c1ccc(Cl)cc1)c64)C(=O)N(c1ccc(Cl)cc1)C5=O` came in with an emission maximum of 534 nm.
Take `COc1ccc(-c2cc(-c3ccc(C#N)cc3)nn2C)cc1`: the emission maximum (in ClCCl) is 384 nm.
Regarding `N#C/C(=C\c1ccc(Cl)cc1)c1nc(-c2ccccc2)cs1`, the emission maximum (in CC#N) is 480 nm.
For `CCC1=C(C)C(=O)n2c1cc1c(C)c(CC(=O)OC)c(C)n1c2=O`, the emission maximum (in CO) is given as 525 nm, the emission maximum (in CS(C)=O) was 500 nm, the emission maximum (in ClC(Cl)Cl) is 490 nm and the emission maximum (in c1ccccc1) stood at 465 nm.
For `Cc1cc(C)c(-c2cc(-c3c(C)cc(C)cc3C)c3ccc4c(-c5c(C)cc(C)cc5C)cc(-c5c(C)cc(C)cc5C)c5ccc2c3c54)c(C)c1`, the emission maximum (in ClCCl) is 411 nm.
Turning to `CCN(CC)c1ccc2cc(C#N)/c(=N\C(=O)c3ccc(F)cc3)oc2c1`, the emission maximum is, setting by setting: (in CCO) 533 nm; (in ClCCl) 507 nm.
For the setting “in C1CCOC1”, `C#Cn1c(-c2cc(-c3nc4ccccc4n3C#C)cc(-c3nc4ccccc4n3C#C)c2)nc2ccccc21` came in with an emission maximum of 386.5 nm.
`COc1ccc(-c2ccc(-c3c4c(nc5ccccc35)-c3cc5c(cc3CC4)-c3nc4ccccc4c(-c4ccc(-c6ccc(OC)cc6)cc4)c3CC5)cc2)cc1` returned an emission maximum (in ClC(Cl)Cl) of 388 nm.
On to `CCCCC1(CCCC)c2cc(C#Cc3ccc4ccc5cccc6ccc3c4c56)ccc2-c2ccc(N(c3ccccc3)c3ccccc3)cc21`, for which the emission maximum by setting is: (in C1CCCCC1) 436 nm; (in C1CCOC1) 498 nm; (in CC#N) 557 nm; (in CCOC(C)=O) 490 nm; (in CN(C)C=O) 565 nm; (in Cc1ccccc1) 449 nm. The emission maximum reads like this: (in ClC(Cl)Cl) 486 nm; (in ClCCl) 516 nm.
In the case of `COC(=O)/C(C#N)=c1/cc/c(=c2/cc/c(=C(\C#N)C(=O)OC)s2)s1`, the emission maximum (in Cc1ccccc1) was found to be 601 nm.
In turn, `CN(C)c1ccc(C#Cc2ccccc2)cc1` returned an emission maximum (in C1CCCCC1) of 344.99 nm; an emission maximum (in C1CCOC1) of 386 nm; an emission maximum (in C1COCCO1) of 372.49 nm; an emission maximum (in CC1CCCO1) of 377.5 nm; an emission maximum (in CC#N) of 415.51 nm; an emission maximum (in CC(C)=O) of 410.49 nm. Moreover, the emission maximum is, setting by setting: (in CC(C)CC(C)(C)C) 342.99 nm; (in CC(C)O) 365 nm; (in CCCCCCCCCCCCCCCC) 346.98 nm; (in CCCCCCCCCCCCCCCCCl) 360.49 nm; (in CCOC(C)=O) 382.5 nm; (in CCOCC) 368.5 nm. The compound further gave an emission maximum (in CN(C)C=O) of 418.5 nm, an emission maximum (in CO) of 372 nm, an emission maximum (in CS(C)=O) of 423.5 nm and an emission maximum (in Cc1ccccc1) of 366.01 nm.
For `CN(C)c1ccc(/C=C/c2cc[n+](CCCCCCCCCCCC[n+]3ccc(/C=C/c4ccc(N(C)C)cc4)cc3)cc2)cc1`, the emission maximum (in CC1COC(=O)O1) came out at 602 nm; the emission maximum (in CC#N) came out at 602 nm; the emission maximum (in CC(C)=O) amounted to 602 nm; the emission maximum (in CC(C)O) was 590 nm; the emission maximum (in CCO) is reported as 593 nm; the emission maximum (in CN(C)C=O) is 602 nm. For the same compound, the emission maximum is reported as 597 nm (in CO); 607 nm (in CS(C)=O); 580 nm (in ClC(Cl)Cl); 597 nm (in O); 598 nm (in c1ccncc1).
The compound `O=C(N/N=C/c1ccccc1O)c1cccc2ccccc12` had an emission maximum (in C1CCOC1) of 436 nm; an emission maximum (in CC#N) of 376 nm; an emission maximum (in CC(C)=O) of 428 nm; an emission maximum (in CCO) of 429 nm; an emission maximum (in CN(C)C=O) of 560 nm; an emission maximum (in CS(C)=O) of 336 nm. The compound further yielded an emission maximum (in ClCCl) of 393 nm.
For the compound `c1ccc(-n2c3ccccc3c3ccccc32)cc1`, the emission maximum (in CCO) is recorded as 344 nm.
Compound `[NH3+]c1ccc2ccc([O-])cc2c1` returned an emission maximum (in O) of 425 nm.
`O=[N+]([O-])c1ccc(/C=C/c2c[nH]c3ccccc23)cc1`: the emission maximum by setting is: (in CC#N) 642 nm; (in CCCCCCC) 511 nm; (in CO) 567 nm; (in O) 552 nm.
In the case of `CCOC(=O)c1ccccc1-c1c2ccc(=O)cc-2oc2cc(OC(=O)[C@H](CSCc3ccc(C)cc3)NC(=O)OC(C)(C)C)ccc12`, the emission maximum reads like this: (in C1CCOC1) 518 nm; (in CC#N) 521 nm; (in CCO) 516 nm; (in CS(C)=O) 549 nm.
For the compound `Cc1cc(-c2ccc(N(c3ccccc3)c3ccccc3)cc2)c2nsnc2c1-c1ccc(C(C)(C)C)cc1`, the emission maximum (in ClCCl) was found to be 575 nm.
For `CCN(CC)c1ccc(-c2nc3c(c4c2-c2ccc(C#N)cc2CC4)-c2ccc(C#N)cc2CC3)cc1`, the emission maximum (in C1CCOC1) is reported as 499 nm; the emission maximum (in CC#N) came out at 525 nm; the emission maximum (in CCCCCC) was 455 nm; the emission maximum (in CCOC(C)=O) came out at 494 nm; the emission maximum (in CO) worked out at 525 nm; the emission maximum (in CS(C)=O) is on record as 541 nm. Besides, the emission maximum (in Cc1ccccc1) came to 474 nm and the emission maximum (in ClCCl) turned out to be 493 nm.
Compound `CN(C)c1ccc(-c2nc3nc4ccccc4nc3n2-c2ccccc2)cc1` showed an emission maximum (in CC#N) of 528 nm.
In the case of `Cc1cscc1-c1cc2c3cc(-c4cscc4C)c4nc(C(F)(F)C(F)(F)C(F)(F)F)nc5c(-c6cscc6C)cc(c6cc(-c7cscc7C)c7nc(C(F)(F)C(F)(F)C(F)(F)F)nc1c7c26)c3c45`, under “in C1CCOC1”, the emission maximum stood at 551 nm.
For the compound `CN(C)CCNc1ccc([N+](=O)[O-])cc1[N+](=O)[O-]`, the emission maximum is given as 368 nm (in C1CCCCC1); 389 nm (in C1CCOC1); 385 nm (in C1COCCO1); 399 nm (in CC#N); 401 nm (in CC(C)=O); 363 nm (in CCCCCC). Also, the emission maximum came out at 394 nm (in CCO); 384 nm (in CCOC(C)=O); 406 nm (in CN(C)C=O); 389 nm (in CO); 417 nm (in CS(C)=O); 385 nm (in Cc1ccccc1). Moreover, the emission maximum by setting is: (in ClC(Cl)Cl) 389 nm; (in ClCCl) 393 nm.
The compound `F[B-]1(F)n2c(ccc2-c2cccs2)C(c2ccc(Br)cc2)=C2C=CC(c3cccs3)=[N+]21` gave an emission maximum (in ClC(Cl)Cl) of 643 nm.
`CN(C)c1ccc(/C=C/c2cc(/C=C/c3ccc(N(C)C)cc3)nc(/C=C/c3ccccc3)n2)cc1`: the emission maximum was found to be 526 nm (in C1CCOC1); 587 nm (in CC#N); 563 nm (in CC(C)=O); 453 nm (in CCCCCCC); 601 nm (in CS(C)=O); 483 nm (in Cc1ccccc1). The compound further returned an emission maximum (in ClCCl) of 537 nm.
`Cc1ccc(-n2c(-c3ccc(N(c4ccc(-c5ccc(N(c6ccc(-c7nc8c9ccccc9c9ccccc9c8n7-c7ccc(C)cc7)cc6)c6ccc(-c7nc8c9ccccc9c9ccccc9c8n7-c7ccc(C)cc7)cc6)cc5)cc4)c4ccc(-c5nc6c7ccccc7c7ccccc7c6n5-c5ccc(C)cc5)cc4)cc3)nc3c4ccccc4c4ccccc4c32)cc1` registered an emission maximum (in ClCCl) of 435 nm.
With `CN(C)c1ccc(/C=C/c2ccncn2)cc1`, the emission maximum (in ClCCl) is recorded as 488 nm.
On to `CN(C)c1ccc(/C=C/c2ccc(-c3nc(C#N)c(C#N)n3C)cc2)cc1`, for which the emission maximum came out at 437 nm (in C1CCCCC1), 530 nm (in CC#N), 514 nm (in CO) and 500 nm (in ClC(Cl)Cl).
For the compound `CC(C)=CCN1C(=O)c2cccc3c2c(cc2nc(C)oc23)C1=O`, under “in CCO”, the emission maximum is on record as 412 nm.
With `COc1cc(OC)cc(C2=C3C(C)=C(I)C(/C=C/c4ccsc4)=[N+]3[B-](F)(F)n3c(/C=C/c4ccsc4)c(I)c(C)c32)c1`, the emission maximum by setting is: (in C1CCOC1) 680 nm; (in CS(C)=O) 692 nm; (in ClCCl) 682 nm.
As to `CCCCCCN1C(=O)c2cccc3c(-c4ccc(-c5cc(-c6ccccc6)nn5-c5ccccc5)s4)ccc(c23)C1=O`, the emission maximum (in ClCCl) is listed as 517 nm.
On the same count and under the same terms, under `C[Si]1(C)c2ccc(C#Cc3ccccc3)cc2C=Cc2cc(C#Cc3ccccc3)ccc21` stands 375 nm.
For the compound `COc1cccc(-n2c(-c3ccc(F)cc3)nc(C)c2C)c1`, the emission maximum was 369 nm (in C1COCCO1); 365.4 nm (in CC#N); 369 nm (in CCCCCC); 370 nm (in CCCCO); 371 nm (in CCO); 367 nm (in CCOC(C)=O). The emission maximum reads like this: (in CO) 368 nm; (in ClC(Cl)Cl) 369 nm; (in ClCCl) 368 nm; (in c1ccccc1) 365 nm.
